Experimental data as given in patent publication US9309301B2 (priority 2011, dated 2016).
Like-named read-outs stand apart in the source and are kept apart here. Square brackets hold non-standard residues; d marks the D form. Primed or numbered codes have the meaning given here. Ends that are not written are not given here. 40K‑TE PEG(4) = 40 kDa PEG bound to Cys thiol via thioether (from iodoacetyl-PEG); Aib = CC(C)(N)C(=O)O

How the values were obtained:
Assay type in all cases: cell-based
GIP receptor = molecular target: T1, GIP receptor (Homo sapiens, UniProt P48546); test: in vitro agonist activity at the GIP receptor (cAMP induction, luciferase reporter, HEK293 cells); conditions: CRE-luciferase reporter
T1 construct: expressed in transfected cells; host or cells: HEK293
T1 sequence (P48546 22-466): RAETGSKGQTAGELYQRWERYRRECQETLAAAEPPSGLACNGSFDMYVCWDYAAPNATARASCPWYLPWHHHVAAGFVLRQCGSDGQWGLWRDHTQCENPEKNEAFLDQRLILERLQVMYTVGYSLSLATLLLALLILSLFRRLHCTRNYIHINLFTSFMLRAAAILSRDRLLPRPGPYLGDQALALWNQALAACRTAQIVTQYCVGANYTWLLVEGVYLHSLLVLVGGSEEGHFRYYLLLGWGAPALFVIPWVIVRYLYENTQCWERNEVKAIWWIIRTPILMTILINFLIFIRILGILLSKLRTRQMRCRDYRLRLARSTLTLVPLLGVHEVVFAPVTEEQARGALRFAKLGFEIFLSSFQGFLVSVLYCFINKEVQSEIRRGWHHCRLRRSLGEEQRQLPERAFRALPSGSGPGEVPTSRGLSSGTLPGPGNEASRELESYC
Procedure: It is understood that a lower EC50 indicates higher activity or potency at the receptor. […] The ability of each peptide to induce cAMP was measured in a firefly luciferase-based reporter assay. […] At the end of the incubation, 100 μL of LucLite luminescence substrate reagent (Perkin Elmer, Wellesley, Mass.) were added to each well. […] In some instances, the in vitro agonist activity at the GIP receptor was also tested.

glucagon receptor = molecular target: T2, glucagon receptor (Homo sapiens, UniProt P47871); test: cAMP induction, firefly luciferase reporter assay in HEK293 cells co-transfected with glucagon receptor
T2 construct: expressed in transfected cells; host or cells: HEK293
Procedure: (§1) The ability of each peptide to induce cAMP was measured in a firefly luciferase-based reporter assay. […] At the end of the incubation, 100 μL of LucLite luminescence substrate reagent (Perkin Elmer, Wellesley, Mass.) were added to each well. […] In some instances, the in vitro agonist activity at the GIP receptor was also tested.

GLP-1 receptor = molecular target: T3, GLP-1 receptor (Homo sapiens, UniProt P43220); test: cAMP induction, firefly luciferase reporter assay in HEK293 cells co-transfected with GLP-1 receptor
T3 construct: expressed in transfected cells; host or cells: HEK293
Procedure: as §1

[1] = read-out: EC50 (nM) at glucagon receptor, CRE-luciferase reporter, 5 hours incubation
[2] = read-out: EC50 (nM) at GLP-1 receptor, CRE-luciferase reporter, 5 hours incubation
[3] = CRE-luciferase reporter, 5 hours incubation

T2 sequence (P47871 26-477, species assumed): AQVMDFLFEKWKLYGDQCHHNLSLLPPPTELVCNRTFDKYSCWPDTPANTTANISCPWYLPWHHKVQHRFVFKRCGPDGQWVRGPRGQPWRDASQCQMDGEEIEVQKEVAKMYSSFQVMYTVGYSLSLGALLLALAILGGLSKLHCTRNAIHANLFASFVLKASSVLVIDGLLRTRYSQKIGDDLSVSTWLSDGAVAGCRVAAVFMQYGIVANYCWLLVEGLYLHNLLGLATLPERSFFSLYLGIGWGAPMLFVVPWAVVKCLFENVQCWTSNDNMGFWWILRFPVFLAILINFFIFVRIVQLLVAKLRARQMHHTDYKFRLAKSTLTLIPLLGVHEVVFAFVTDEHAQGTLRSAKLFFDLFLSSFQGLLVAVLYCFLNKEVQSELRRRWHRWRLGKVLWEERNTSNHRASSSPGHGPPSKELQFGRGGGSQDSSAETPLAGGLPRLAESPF
T3 sequence (P43220 24-463): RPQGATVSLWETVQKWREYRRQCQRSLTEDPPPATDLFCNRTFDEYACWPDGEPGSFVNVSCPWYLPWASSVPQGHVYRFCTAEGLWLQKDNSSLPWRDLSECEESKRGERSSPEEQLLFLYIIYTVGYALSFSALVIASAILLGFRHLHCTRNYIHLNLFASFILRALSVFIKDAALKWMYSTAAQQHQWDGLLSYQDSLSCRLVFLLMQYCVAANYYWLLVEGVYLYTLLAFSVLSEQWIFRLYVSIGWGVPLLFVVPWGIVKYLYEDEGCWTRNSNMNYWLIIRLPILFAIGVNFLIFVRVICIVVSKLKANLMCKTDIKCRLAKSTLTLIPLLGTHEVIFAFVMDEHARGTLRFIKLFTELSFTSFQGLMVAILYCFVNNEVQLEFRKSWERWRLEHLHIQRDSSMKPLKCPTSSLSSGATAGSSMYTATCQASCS

`CCCCCCCCCCCCCCCC(=O)N[C@@H](CCC(=O)NCCCC[C@H](NC(=O)[C@H](CC(=O)O)NC(=O)[C@H](CO)NC(=O)[C@@H](NC(=O)[C@H](Cc1ccccc1)NC(=O)[C@@H](NC(=O)CNC(=O)[C@H](CCC(N)=O)NC(=O)[C@@H](CO)NC(=O)[C@@H](N)Cc1c[nH]cn1)[C@@H](C)O)[C@@H](C)O)C(=O)N[C@@H](CO)C(=O)N[C@@H](CCCCN)C(=O)N[C@@H](Cc1ccc(O)cc1)C(=O)N[C@@H](CC(C)C)C(=O)N[C@@H](CC(=O)O)C(=O)N[C@@H](CCC(=O)O)C(=O)N[C@@H](CCC(N)=O)C(=O)N[C@@H](C)C(=O)N[C@@H](C)C(=O)N[C@@H](CCCCN)C(=O)N[C@@H](CCC(=O)O)C(=O)N[C@@H](Cc1ccccc1)C(=O)N[C@H](C(=O)N[C@@H](CS)C(=O)N[C@@H](Cc1c[nH]c2ccccc12)C(=O)N[C@@H](CC(C)C)C(=O)N[C@@H](CC(C)C)C(=O)N[C@@H](CC(=O)O)C(=O)N[C@H](C(N)=O)[C@@H](C)O)[C@@H](C)CC)C(=O)O` [compound 64] showed an EC50 (GIP receptor) of 2.82 nM.
Work on `CCCCCCCCCCCCCCCC(=O)N[C@@H](CCC(=O)NCCCC[C@H](NC(=O)[C@H](CC(=O)O)NC(=O)[C@H](CO)NC(=O)[C@@H](NC(=O)[C@H](Cc1ccccc1)NC(=O)[C@@H](NC(=O)CNC(=O)[C@H](CCC(N)=O)NC(=O)[C@@H](CO)NC(=O)[C@@H](N)Cc1c[nH]cn1)[C@@H](C)O)[C@@H](C)O)C(=O)N[C@@H](CO)C(=O)N[C@@H](CCCCN)C(=O)N[C@@H](Cc1ccc(O)cc1)C(=O)N[C@@H](CC(C)C)C(=O)N[C@@H](CC(=O)O)C(=O)N[C@@H](CCC(=O)O)C(=O)N[C@@H](CCC(N)=O)C(=O)N[C@@H](C)C(=O)N[C@@H](C)C(=O)N[C@@H](CCCCN)C(=O)N[C@@H](CCC(=O)O)C(=O)N[C@@H](Cc1ccccc1)C(=O)N[C@H](C(=O)N[C@@H](CS)C(=O)N[C@@H](Cc1c[nH]c2ccccc12)C(=O)N[C@@H](CC(C)C)C(=O)N[C@@H](CC(C)C)C(=O)N[C@@H](CC(=O)O)C(=O)N[C@H](C(=O)N[C@@H](CCC(=O)O)C(N)=O)[C@@H](C)O)[C@@H](C)CC)C(=O)O` [compound 65] yielded an EC50 (GIP receptor) of 47.1 nM.
In the case of `CC(C)C[C@H](NC(=O)[C@H](Cc1ccc(O)cc1)NC(=O)[C@H](CCCCN)NC(=O)[C@H](CO)NC(=O)[C@H](CCCCNC(=O)CC[C@H](NC(=O)CC12CC3CC(CC(C3)C1)C2)C(=O)O)NC(=O)[C@H](CC(=O)O)NC(=O)[C@H](CO)NC(=O)[C@@H](NC(=O)[C@H](Cc1ccccc1)NC(=O)[C@@H](NC(=O)CNC(=O)[C@H](CCC(N)=O)NC(=O)[C@@H](CO)NC(=O)[C@@H](N)Cc1c[nH]cn1)[C@@H](C)O)[C@@H](C)O)C(=O)N[C@@H](CC(=O)O)C(=O)N[C@@H](CCC(=O)O)C(=O)N[C@@H](CCCNC(=N)N)C(=O)N[C@@H](C)C(=O)N[C@@H](C)C(=O)N[C@@H](CCC(N)=O)C(=O)N[C@@H](CC(=O)O)C(=O)N[C@@H](Cc1ccccc1)C(=O)N[C@H](C(=O)N[C@@H](CCC(N)=O)C(=O)N[C@@H](Cc1c[nH]c2ccccc12)C(=O)N[C@@H](CC(C)C)C(=O)N[C@@H](CC(C)C)C(=O)N[C@@H](CC(=O)O)C(=O)N[C@H](C(N)=O)[C@@H](C)O)C(C)C` [compound 48], the EC50 (glucagon receptor; [1]) is reported as 0.026 nM and the EC50 (GLP-1 receptor; [2]) is reported as 0.039 nM.
For “46 (H[Aib]QGTFTSDYSKYLD[Aib]KRA[Aib]EFVC(PEG 40 kDa)WLLDGGPSSGAPPPS-NH2) [compound 46]”, the “EC50 (nM) at GIP receptor” value (GIP receptor) was “no activity”.
In the case of “47 (H[Aib]QGTFTSDYSKYLDEKRA[Aib]EFVC(PEG 40 kDa)WLLDGGPSSGAPPPS-NH2) [compound 47]”, the “EC50 (nM) at GIP receptor” value (GIP receptor) is reported as “no activity”.
With `CCCCCCCCCCCCCCCC(=O)N[C@@H](CCC(=O)NCCCC[C@H](NC(=O)[C@H](CC(=O)O)NC(=O)[C@H](CO)NC(=O)[C@@H](NC(=O)[C@H](Cc1ccccc1)NC(=O)[C@@H](NC(=O)CNC(=O)[C@H](CCC(N)=O)NC(=O)[C@@H](CO)NC(=O)[C@@H](N)Cc1c[nH]cn1)[C@@H](C)O)[C@@H](C)O)C(=O)N[C@@H](CO)C(=O)N[C@@H](CCCCN)C(=O)N[C@@H](Cc1ccc(O)cc1)C(=O)N[C@@H](CC(C)C)C(=O)N[C@@H](CC(=O)O)C(=O)N[C@@H](CCC(=O)O)C(=O)N[C@@H](CCCNC(=N)N)C(=O)N[C@@H](C)C(=O)N[C@@H](C)C(=O)N[C@@H](CCC(N)=O)C(=O)N[C@@H](CC(=O)O)C(=O)N[C@@H](Cc1ccccc1)C(=O)N[C@H](C(=O)N[C@@H](CCC(N)=O)C(=O)N[C@@H](Cc1c[nH]c2ccccc12)C(=O)N[C@@H](CC(C)C)C(=O)N[C@@H](CC(C)C)C(=O)N[C@@H](CC(=O)O)C(=O)NCC(=O)N[C@@H](CCCNC(=N)N)C(=O)NCC(N)=O)C(C)C)C(=O)O` [compound 19] the EC50 (glucagon receptor; [1]) was 0.004 nM, the EC50 (GLP-1 receptor; [2]) was 0.002 nM and the EC50 (GIP receptor) was 0.812 nM.
In the case of “13 (H[Aib]QGTFTSDYSKYLDEKRA[Aib]EFVC(PEG 40 kDa)WLLDT-NH2) [compound 13]”, the “EC50 (nM) at GIP receptor” value (GIP receptor) is reported as “no activity”.
For “51 (H[Aib]QGTFTSDYSKYLDEKRA[Aib]EFVC(40K‑TE PEG(4))WLL[Aib]GGPSSGAPPPS-NH2) [compound 51]”, the “EC50 (nM) at GIP receptor” value (GIP receptor) was “no activity”.
For “38 (H[Aib]QGTFTSDYSKYLD[Aib]KRA[Aib]EFVC(PEG 40 kDa)WLLDT-NH2) [compound 38]”, the “EC50 (nM) at GIP receptor” value (GIP receptor) was “no activity”.
With “41 (H[Aib]QGTFTSDYSKYLDEKRA[Aib]EFVC(PEG 40 kDa)WLL[Aib]T-NH2) [compound 41]” the “EC50 (nM) at GIP receptor” value (GIP receptor) was “no activity”.
Work on `CC(C)C[C@H](NC(=O)[C@H](CC(C)C)NC(=O)[C@H](Cc1c[nH]c2ccccc12)NC(=O)[C@H](CCC(N)=O)NC(=O)[C@@H](NC(=O)[C@H](Cc1ccccc1)NC(=O)[C@H](CC(=O)O)NC(=O)[C@H](CCC(N)=O)NC(=O)[C@H](C)NC(=O)[C@H](C)NC(=O)[C@H](CCCNC(=N)N)NC(=O)[C@H](CCC(=O)O)NC(=O)[C@H](CC(=O)O)NC(=O)[C@H](CC(C)C)NC(=O)[C@H](Cc1ccc(O)cc1)NC(=O)[C@H](CCCCN)NC(=O)[C@H](CO)NC(=O)[C@H](CCCCNC(=O)CCC(=O)c1ccccc1)NC(=O)[C@H](CC(=O)O)NC(=O)[C@H](CO)NC(=O)[C@@H](NC(=O)[C@H](Cc1ccccc1)NC(=O)[C@@H](NC(=O)CNC(=O)[C@H](CCC(N)=O)NC(=O)[C@@H](CO)NC(=O)[C@@H](N)Cc1c[nH]cn1)[C@@H](C)O)[C@@H](C)O)C(C)C)C(=O)N[C@@H](CC(=O)O)C(=O)NCC(=O)NCC(=O)N1CCC[C@H]1C(=O)N[C@@H](CO)C(=O)N[C@@H](CO)C(=O)NCC(=O)N[C@@H](C)C(=O)N1CCC[C@H]1C(=O)N1CCC[C@H]1C(=O)N1CCC[C@H]1C(=O)N[C@@H](CO)C(N)=O` [compound 49] yielded an EC50 (glucagon receptor; [3]) of 0.063 nM and an EC50 (GLP-1 receptor; [3]) of 0.01 nM.
“52 (H[Aib]QGTFTSDYSKYLDEK[Aib]AKEFVC(PEG 40 kDa)WLLDT-NH2) [compound 52]” was tested, and the “EC50 (nM) at GIP receptor” value (GIP receptor) was “no activity”.
“45 (H[Aib]QGTFTSDYSKYLDEKRA[Aib]EFVC(40K‑TE PEG(4))WLLDT-OH) [compound 45]” was tested, and the “EC50 (nM) at GIP receptor” value (GIP receptor) was “no activity”.
